Test results taken from paper PMC3425516 (PLoS ONE, 2012).

Assays:
HCT116 cells [1] = experiment: Flow cytometry cell cycle / sub-G1 analysis; format: cell-based, human
Protocol: After centrifugation, cells were incubated in 0.1 mol/L phosphate-citric acid buffer [0.2 mol/L NaHPO4, 0.1 mol/L citric acid (pH 7.8)] for 20 min at room temperature. Then, the cells were centrifuged and resuspended with 0.5 mL PI solution containing Triton X-100 (0.1%, v/v), RNase (100 µg/mL), and PI (80 µg/mL). DNA content was analyzed with the FACScan and CellQuest software (Becton Dickinson).

[2] = tested on: human HCT116 colorectal cancer xenograft; experiment: HCT116 xenograft, tumor growth delay to 1,200 mm^3 endpoint; format: in vivo, nude mice; settings: for No. of CR (complete regression): 8 mice per group; for %TGD (tumor growth delay): [(T-C)/C]×100; for T-C: median TTE treated versus control
Protocol: The human HCT116 colorectal adenocarcinoma cells used for implantation were harvested during log phase growth and resuspended in phosphate-buffered saline at 5×10^7 cells/mL. Each mouse was injected s.c. in the right flank with 1.0×10^7 cells (0.2 mL cell suspension). Tumors were monitored twice weekly and then daily as their volumes approached 1,200 mm^3. Tumor size, in mm^3, was calculated from: where w = width and l = length in mm of the tumor. Tumor volume = (w^2×l)/2.
The logrank test was used to determine the statistical significance of the difference between the TTE values of two groups, except any NTR deaths. […] The two-tailed statistical analyses were conducted at P = 0.05. Kaplan-Meier plots show the percentage of animals remaining in the study versus time. The Kaplan-Meier plots use the same data set as the logrank test.
(§1) Once a tumor was palpable with the size of approximately 55 mm^3, mice were randomized into vehicle control and treatment groups (8 mice per group). Control mice received the vehicle (0.5% carboxymethyl cellulose +0.1% Tween 80). Tumors in all 3 groups were allowed to reach an endpoint volume of 1,200 mm^3.

recombinant human HDAC8 = recombinant human HDAC8 (Homo sapiens, UniProt Q9BY41); experiment: biochemical
recombinant human HDAC8, sequence (Q9BY41 whole entry): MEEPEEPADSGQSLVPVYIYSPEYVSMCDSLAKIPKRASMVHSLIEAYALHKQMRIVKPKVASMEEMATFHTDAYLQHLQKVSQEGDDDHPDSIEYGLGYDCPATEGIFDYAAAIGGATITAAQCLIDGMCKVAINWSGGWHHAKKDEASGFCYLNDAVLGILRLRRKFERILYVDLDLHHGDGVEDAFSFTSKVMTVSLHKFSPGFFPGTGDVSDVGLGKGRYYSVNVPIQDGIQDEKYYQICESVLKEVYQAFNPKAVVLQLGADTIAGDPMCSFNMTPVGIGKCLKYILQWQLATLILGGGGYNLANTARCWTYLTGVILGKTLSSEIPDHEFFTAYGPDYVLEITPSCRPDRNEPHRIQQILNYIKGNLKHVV
Excerpt: The HDACs in vitro activities of recombinant human HDAC 1, 2, 4, 6 and 8 (BPS Biosciences) were detected by fluorigenic release of 7-amino-4-methylcoumarin from substrate upon deacetylase enzymatic activity.

HCT116 cells [3] = experiment: Western blot caspase 3 and PARP; format: cell-based, human; settings: 24 h
Protocol: (§2) For total lysate, cells were lysed with the 120 µL ice-cold lysis buffer [10 mmol/L Tris-HCl (pH 7.4), 150 mmol/L NaCl, 1 mmol/L EGTA, 1 mmol/L phenylmethylsulfonyl fluoride, 10 µg/mL aprotinin, 10 µg/mL leupeptin, 1 mM sodium orthovandate, 1 mM NaF, and 1% Triton X-100]. Cell lysates were centrifuged at 13,000 rpm for 30 min. […] After 1 h incubation at room temperature in PBS/5% nonfat milk, the membrane was washed with PBS/0.1% and incubated with the indicated antibodies at 4°C overnight. After washings with PBS/0.1% Tween 20, the corresponding secondary antibodies were applied to the membranes for 1 h at room temperature. The membranes were then washed with PBS/0.1% Tween 20 and the detection of signal was done with an enhanced chemiluminescence detection kit (Amersham, Buckinghamshire, UK).

HCT116 xenograft tumors = experiment: Western blot of HCT116 xenograft tumor tissues; format: in vivo, nude mice; settings: 200 mg/kg oral daily for 7 days
Protocol: as §2, §1

O=C(C=Cc1ccc2c(c1)CCN2S(=O)(=O)c1ccccc1)NO [MPT0E028, 3-(1-benzenesulfonyl-2,3-dihydro-1H-indol-5-yl)-N-hydroxy-acrylamide]
sub-G1 population (flow cytometry) (HCT116 cells [1]): increased the number of cells in the sub-G1 phase of the cell cycle
No. of CR (complete regression) ([2]; 50 mg/kg po qd): 0
%TGD (tumor growth delay) ([2]; 50 mg/kg po qd): 0%
T-C ([2]; 50 mg/kg po qd): 0 days
Median TTE ([2]; 100 mg/kg po qd to endpoint 1200 mm^3): 19.2 days
No. of CR (complete regression) ([2]; 100 mg/kg po qd): 1
%TGD (tumor growth delay) ([2]; 100 mg/kg po qd): 16%
T-C ([2]; 100 mg/kg po qd): 2.6 days
Median TTE ([2]; 200 mg/kg po qd to endpoint 1200 mm^3): 36.9 days
No. of CR (complete regression) ([2]; 200 mg/kg po qd): 3
%TGD (tumor growth delay) ([2]; 200 mg/kg po qd): 122%
T-C ([2]; 200 mg/kg po qd): 20 days
IC50 (recombinant human HDAC8): 2.53 ± 0.315 µM
caspase 3 and PARP activation (western blot) (HCT116 cells [3]): induced caspase 3 and PARP activation in a concentration-dependent manner
expression of caspase 3, PARP, acetyl-histone H3 and acetyl-tubulin in xenograft tumors (HCT116 xenograft tumors): caspase 3, PARP and acetyl-histone H3 were substantially induced
